Reference: ChEMBL document CHEMBL1201862, “PubChem BioAssay data set” (2004)
Calls of active or inactive are those of the source.

What was measured:
Ion channel NompC [1] = target: T1, Ion channel NompC (Danio rerio, UniProt Q7T1G6); assay: Fluorescence counterscreen assay for TRPML3 agonists: dose response cell-based high-throughput screening assay to identify agonists of the transient receptor potential channel N1 (TRPN1). [Related pubchem assays: 1526, 1424, 1448 ]; type: functional
Ion channel NompC [2] = target: T1, Ion channel NompC; assay: Late stage counterscreen for the probe development effort to identify selective agonists of the Transient Receptor Potential Channels 3 (TRPML3): fluorescence-based cell-based dose response assay for TRPN1 agonists.; type: functional
Mucolipin-3 = Mucolipin-3 (Homo sapiens, UniProt Q8TDD5); assay: Dose response cell-based high-throughput screening assay for agonists of the transient receptor potential channel ML3 (TRPML3). [Related pubchem assays: 1526, 1424, 1448 ]; type: functional
Mucolipin-3, sequence (Q8TDD5 whole entry): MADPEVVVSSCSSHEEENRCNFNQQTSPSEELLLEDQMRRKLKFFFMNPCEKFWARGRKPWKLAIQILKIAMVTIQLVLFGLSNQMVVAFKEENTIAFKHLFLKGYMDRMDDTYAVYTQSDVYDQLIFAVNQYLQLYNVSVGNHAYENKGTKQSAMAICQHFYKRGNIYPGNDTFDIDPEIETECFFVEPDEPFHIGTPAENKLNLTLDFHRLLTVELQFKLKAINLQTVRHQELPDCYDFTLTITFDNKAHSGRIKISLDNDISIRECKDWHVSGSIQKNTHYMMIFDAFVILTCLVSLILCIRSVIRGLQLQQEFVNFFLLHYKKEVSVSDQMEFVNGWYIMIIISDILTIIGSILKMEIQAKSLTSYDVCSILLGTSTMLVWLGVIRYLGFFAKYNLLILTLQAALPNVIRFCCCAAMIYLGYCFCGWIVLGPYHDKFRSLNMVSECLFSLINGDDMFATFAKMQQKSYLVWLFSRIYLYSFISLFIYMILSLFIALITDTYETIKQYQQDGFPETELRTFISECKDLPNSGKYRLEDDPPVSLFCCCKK

[3] = target: T2, Calpain-2 catalytic subunit (Sus scrofa, UniProt P43367); assay: pig calpain II inhibitor potency, dose response, biochemical, fluorogenic peptide substrate (AID 1420); type: functional
T2 sequence (P43367 whole entry): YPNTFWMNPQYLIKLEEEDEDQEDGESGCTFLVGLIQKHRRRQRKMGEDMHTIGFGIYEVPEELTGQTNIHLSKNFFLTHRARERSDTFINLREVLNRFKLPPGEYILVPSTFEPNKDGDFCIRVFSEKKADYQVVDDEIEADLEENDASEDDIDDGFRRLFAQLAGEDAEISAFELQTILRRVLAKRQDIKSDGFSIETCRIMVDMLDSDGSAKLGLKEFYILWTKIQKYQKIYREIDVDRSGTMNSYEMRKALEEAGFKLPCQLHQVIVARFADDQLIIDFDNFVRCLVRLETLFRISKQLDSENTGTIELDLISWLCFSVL

[4] = Luminescence-based counterscreen assay for KLF5 inhibitors: dose response cell-based high throughput screening assay to identify cytotoxic compounds using the IEC-6 intestinal epithelial cell line. [Related pubchem assays: 1700 (Primary screen.), 1834 (Confirmation screen.), 1858 (Summary AID.), 1905 (Counterscreen.)]; type: functional
[5] = NIH-3T3 fibroblast cytotoxicity, dose response, cytotoxicity control, cell-based, fluorescence, Alamar Blue, secondary assay (AID 2327); type: functional;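 note: NIH-3T3 mouse fibroblasts cultured with fluconazole at 8 µg/mL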
INS1 = assay: beta cell apoptosis inhibitors, cytokine rescue, dose response, luminescence, retest (AID 449756); type: functional, cell-based; conditions: Rattus norvegicus;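 note: cell death triggered by IL-1 beta plus TNF-alpha plus IFN-gamma mixture; protective hits raise ATP signal compared with cytokine alone wells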
[6] = C. albicans growth with fluconazole, confirmation, fluorescence, retest (AID 2467); type: functional, cell-based
Nonstructural protein 1 = Nonstructural protein 1 (Influenza A virus, UniProt Q194T2); type: functional, Influenza A virus (A/California/07/2009(H1N1))
Nonstructural protein 1, sequence (Q194T2 whole entry): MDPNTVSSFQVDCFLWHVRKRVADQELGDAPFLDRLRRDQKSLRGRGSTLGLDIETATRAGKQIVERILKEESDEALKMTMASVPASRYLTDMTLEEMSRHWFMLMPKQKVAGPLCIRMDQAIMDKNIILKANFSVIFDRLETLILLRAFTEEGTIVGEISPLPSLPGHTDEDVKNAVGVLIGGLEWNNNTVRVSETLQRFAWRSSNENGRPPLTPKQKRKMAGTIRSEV

[7] = enhancers of respiration in Yfh1-depleted yeast, dose response, Friedreich's ataxia, plus single-dose screen (AID 1465); type: functional;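 note: yeast depleted of Yfh1p frataxin homolog grown on glycerol needing respiration; WST-1 tetrazolium dye reduction as measure of cellular dehydrogenase metabolic activity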
[8] = A Cell Based Secondary Assay To Explore Cytotoxicity of Compounds that Sensitize Mycobacterium Tuberculosis to Beta-Lactam Antibiotics.; type: functional
[9] = Luminescence Cell-Based Dose Retest to Confirm Inhibitors of Cancer Stem Cells. [Related pubchem assays (depositor defined):AID2717, AID2721]; type: functional; conditions: Homo sapiens
[10] = target: T3, Replicative DNA helicase DnaB (Mycobacterium tuberculosis, UniProt P9WMR3); assay: DnaB intein splicing inhibitors, dose response, biochemical, cell-free fluorescence (AID 449749); type: functional
T3 sequence (P9WMR3 whole entry): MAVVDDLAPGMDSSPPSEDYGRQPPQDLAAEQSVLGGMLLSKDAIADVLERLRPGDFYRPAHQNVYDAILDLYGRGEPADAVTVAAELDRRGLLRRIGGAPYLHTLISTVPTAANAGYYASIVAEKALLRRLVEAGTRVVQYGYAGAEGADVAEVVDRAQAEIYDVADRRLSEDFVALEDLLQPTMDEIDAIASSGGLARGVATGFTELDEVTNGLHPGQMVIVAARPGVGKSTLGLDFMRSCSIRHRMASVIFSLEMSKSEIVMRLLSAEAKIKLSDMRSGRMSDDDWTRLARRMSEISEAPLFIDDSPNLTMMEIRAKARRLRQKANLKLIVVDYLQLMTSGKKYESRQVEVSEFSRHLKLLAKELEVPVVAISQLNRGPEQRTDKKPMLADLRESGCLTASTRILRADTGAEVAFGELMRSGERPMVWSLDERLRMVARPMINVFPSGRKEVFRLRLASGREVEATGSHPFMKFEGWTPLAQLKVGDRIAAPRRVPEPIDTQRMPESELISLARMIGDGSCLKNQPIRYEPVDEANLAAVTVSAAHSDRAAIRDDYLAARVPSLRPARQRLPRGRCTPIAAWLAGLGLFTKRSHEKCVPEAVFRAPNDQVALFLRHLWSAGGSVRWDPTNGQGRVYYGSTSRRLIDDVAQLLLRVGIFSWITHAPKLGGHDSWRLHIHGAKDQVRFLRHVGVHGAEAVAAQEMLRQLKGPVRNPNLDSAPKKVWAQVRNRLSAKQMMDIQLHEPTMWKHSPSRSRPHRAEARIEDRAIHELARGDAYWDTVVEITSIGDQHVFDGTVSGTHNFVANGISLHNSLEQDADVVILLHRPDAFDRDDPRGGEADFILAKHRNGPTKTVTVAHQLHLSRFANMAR

Protein RecA = target: T4, Protein RecA (Mycobacterium tuberculosis, UniProt P9WHJ3); assay: Fluorescence Cell-Free Homogeneous Dose Retest to Identify Inhibitors of RecA-Intein Splicing Activity. [Related pubchem assays (depositor defined):AID2097, AID2223, AID489010, AID492950]; type: functional
T4 sequence (P9WHJ3 whole entry): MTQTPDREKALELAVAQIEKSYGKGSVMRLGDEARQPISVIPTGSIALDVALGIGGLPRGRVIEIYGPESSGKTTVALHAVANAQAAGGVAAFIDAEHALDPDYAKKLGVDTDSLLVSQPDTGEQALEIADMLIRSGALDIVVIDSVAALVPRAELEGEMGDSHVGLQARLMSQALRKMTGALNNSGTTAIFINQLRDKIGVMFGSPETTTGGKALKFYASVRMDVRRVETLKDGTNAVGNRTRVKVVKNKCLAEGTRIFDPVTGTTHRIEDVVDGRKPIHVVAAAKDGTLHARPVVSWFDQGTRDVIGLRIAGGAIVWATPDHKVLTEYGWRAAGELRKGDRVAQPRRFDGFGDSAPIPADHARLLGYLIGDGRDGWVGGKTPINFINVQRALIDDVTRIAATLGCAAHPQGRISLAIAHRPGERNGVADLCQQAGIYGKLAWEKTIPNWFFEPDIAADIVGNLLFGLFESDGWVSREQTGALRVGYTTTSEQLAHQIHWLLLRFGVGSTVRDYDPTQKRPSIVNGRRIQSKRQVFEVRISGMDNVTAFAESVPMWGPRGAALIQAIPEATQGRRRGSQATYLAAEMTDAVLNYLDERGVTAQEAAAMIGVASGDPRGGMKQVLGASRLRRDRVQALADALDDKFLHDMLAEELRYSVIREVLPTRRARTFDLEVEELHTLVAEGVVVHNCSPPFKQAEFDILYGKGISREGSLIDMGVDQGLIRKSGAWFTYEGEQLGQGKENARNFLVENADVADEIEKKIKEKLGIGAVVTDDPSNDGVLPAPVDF

[11] = HIV-1 Env-mediated cell fusion inhibitors, dose response, CCR5-tropic Env (AID 2279); type: functional

T1 sequence (Q7T1G6 whole entry): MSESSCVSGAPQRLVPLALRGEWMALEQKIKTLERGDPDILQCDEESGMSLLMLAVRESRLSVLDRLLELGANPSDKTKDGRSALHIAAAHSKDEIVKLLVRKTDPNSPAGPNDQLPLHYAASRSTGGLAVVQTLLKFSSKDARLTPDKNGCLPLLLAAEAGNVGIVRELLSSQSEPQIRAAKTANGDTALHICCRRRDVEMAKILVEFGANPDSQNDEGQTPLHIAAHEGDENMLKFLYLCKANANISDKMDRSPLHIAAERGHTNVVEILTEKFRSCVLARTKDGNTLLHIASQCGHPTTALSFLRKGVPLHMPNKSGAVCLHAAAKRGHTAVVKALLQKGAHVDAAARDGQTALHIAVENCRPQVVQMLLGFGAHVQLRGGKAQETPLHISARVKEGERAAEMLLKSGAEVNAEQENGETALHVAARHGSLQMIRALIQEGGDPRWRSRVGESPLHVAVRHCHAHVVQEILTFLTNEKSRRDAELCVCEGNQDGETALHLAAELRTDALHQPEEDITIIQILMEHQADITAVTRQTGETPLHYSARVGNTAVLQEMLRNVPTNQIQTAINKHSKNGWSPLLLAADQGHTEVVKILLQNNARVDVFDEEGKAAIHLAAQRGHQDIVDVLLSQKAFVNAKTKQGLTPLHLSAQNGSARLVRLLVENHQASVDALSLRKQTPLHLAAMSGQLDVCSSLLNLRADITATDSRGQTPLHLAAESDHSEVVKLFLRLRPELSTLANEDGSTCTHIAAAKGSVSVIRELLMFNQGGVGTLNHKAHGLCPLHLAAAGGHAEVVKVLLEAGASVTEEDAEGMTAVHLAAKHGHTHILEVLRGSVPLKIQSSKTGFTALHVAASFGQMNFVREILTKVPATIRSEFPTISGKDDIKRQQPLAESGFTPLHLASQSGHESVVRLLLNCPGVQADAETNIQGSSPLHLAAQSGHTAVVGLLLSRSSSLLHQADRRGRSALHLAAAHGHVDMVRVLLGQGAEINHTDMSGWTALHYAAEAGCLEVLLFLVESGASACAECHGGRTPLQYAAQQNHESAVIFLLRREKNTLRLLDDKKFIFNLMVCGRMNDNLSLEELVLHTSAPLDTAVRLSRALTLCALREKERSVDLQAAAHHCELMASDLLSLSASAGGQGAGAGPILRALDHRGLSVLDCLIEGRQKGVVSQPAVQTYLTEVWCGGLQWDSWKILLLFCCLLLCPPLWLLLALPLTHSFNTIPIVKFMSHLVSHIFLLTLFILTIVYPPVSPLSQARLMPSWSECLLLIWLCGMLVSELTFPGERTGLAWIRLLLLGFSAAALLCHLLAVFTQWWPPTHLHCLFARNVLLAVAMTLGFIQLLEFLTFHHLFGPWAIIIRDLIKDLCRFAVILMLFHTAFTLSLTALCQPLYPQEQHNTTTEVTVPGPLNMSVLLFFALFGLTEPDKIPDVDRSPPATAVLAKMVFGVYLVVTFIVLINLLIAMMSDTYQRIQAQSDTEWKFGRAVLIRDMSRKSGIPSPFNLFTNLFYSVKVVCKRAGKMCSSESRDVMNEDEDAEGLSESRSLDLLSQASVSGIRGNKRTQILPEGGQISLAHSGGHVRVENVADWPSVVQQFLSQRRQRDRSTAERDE

In the case of `CCOc1ccc(S(=O)(=O)N2CCCCC2)c(C)c1C`, the EC50 (Ion channel NompC [1]) is reported as > 29.9 µM (not active), the EC50 (Ion channel NompC [2]) is reported as > 29.9 µM (not active) and the EC50 (Mucolipin-3) is reported as 1.43 µM (active). For the same compound, the IC50 [3] was 32.6 µM (not active).

For `COc1ccc(/C=N/NC(=O)CCn2c3ccccc3c3ccccc32)cc1O`, the IC50 [4] was 2.02 µM (active).

For `Cc1ccc2cc(C3C(C#N)=C(N)Oc4c3ccc3cccnc43)c(O)nc2c1` (stereo not given), the EC50 [5] was > 150 µM (inactive), the AC50 (INS1) was 1.02 µM (active) and the EC50 [6] was > 38 µM (not active). For the same compound, the IC50 (Nonstructural protein 1) was 14.3 µM (active) and the EC50 [7] was > 100 µM (active).

In the case of `Cc1nn(CCc2nn[nH]n2)c2nc(-c3ccc(C4CCCCC4)cc3)cc(C(F)(F)F)c12`, the CC50 [8] is reported as 34.4 µM (active), the AC50 [9] is reported as 2.14 µM (active) and the AC50 [10] is reported as 3.83 µM (active). The EC50 (Protein RecA) was 38.1 µM (active) and the IC50 [11] was 21.7 µM (active).
